Assay [1] relates to alpha-glucosidase (Rattus norvegicus). Put plainly: Inhibition of rat intestinal alpha-glucosidase. Also on record: concentration or dose not given beside the values. As to conditions: concentration not given here.
Assay [2] deals with T1, Alpha-glucosidase MAL12 (Saccharomyces cerevisiae S288c, UniProt P53341). Put plainly: (§1) Inhibition of baker's yeast alpha-glucosidase.
Assay [3] concerns the target Oligo-1,6-glucosidase IMA1 (Saccharomyces cerevisiae S288c) (UniProt P53051). The description is as §1.
For assay [4], the target named is T1, Alpha-glucosidase MAL12. As to the kind of experiment: Mixed type inhibition of baker's yeast alpha-glucosidase by Dixon plot analysis.
For assay [5], the species on record is Rattus norvegicus. Put plainly: Gastroprotective activity in rat assessed as protection against ethanol-induced gastric injury. Type of assay: functional, Stomach. The settings on record: for ED50: Rattus norvegicus, Stomach.
The nature of assay [6]: Inhibition of rat intestinal alpha-glucosidase.
The target in assay [7] is alpha-glucosidase (Mus musculus). As to the kind of experiment: Inhibition of alpha-glucosidase from mouse intestine crude homogenate.

Converted amounts (≈) assume the structure as drawn.

One may read the inhibition as the drop in the measured response relative to a control, in per cent. Usually IC50 stands for the concentration at which inhibition is half-maximal. A word on the Ki: it is a measure of affinity in units of concentration, obtained from inhibition or displacement. By ED50 is commonly meant the dose that gives a 50% effect, or the effect in half of the subjects.

Sequence of Oligo-1,6-glucosidase IMA1 (Saccharomyces cerevisiae S288c) (P53051 whole entry): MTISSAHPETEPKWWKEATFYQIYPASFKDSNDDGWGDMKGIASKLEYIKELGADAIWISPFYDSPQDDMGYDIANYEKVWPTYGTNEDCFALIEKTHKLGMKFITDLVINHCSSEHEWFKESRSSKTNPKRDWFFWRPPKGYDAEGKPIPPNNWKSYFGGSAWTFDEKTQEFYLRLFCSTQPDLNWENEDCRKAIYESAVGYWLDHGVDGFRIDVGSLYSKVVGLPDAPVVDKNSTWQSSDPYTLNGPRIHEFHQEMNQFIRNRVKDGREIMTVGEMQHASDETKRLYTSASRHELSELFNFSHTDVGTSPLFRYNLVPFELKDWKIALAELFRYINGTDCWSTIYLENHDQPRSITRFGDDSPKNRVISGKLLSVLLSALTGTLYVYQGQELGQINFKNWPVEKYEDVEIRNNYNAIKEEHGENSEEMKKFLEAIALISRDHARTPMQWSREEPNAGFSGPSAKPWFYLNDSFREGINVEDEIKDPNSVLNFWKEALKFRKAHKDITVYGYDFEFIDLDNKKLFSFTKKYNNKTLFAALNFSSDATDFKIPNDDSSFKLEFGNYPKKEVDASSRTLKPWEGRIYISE
T1 sequence (P53341 whole entry): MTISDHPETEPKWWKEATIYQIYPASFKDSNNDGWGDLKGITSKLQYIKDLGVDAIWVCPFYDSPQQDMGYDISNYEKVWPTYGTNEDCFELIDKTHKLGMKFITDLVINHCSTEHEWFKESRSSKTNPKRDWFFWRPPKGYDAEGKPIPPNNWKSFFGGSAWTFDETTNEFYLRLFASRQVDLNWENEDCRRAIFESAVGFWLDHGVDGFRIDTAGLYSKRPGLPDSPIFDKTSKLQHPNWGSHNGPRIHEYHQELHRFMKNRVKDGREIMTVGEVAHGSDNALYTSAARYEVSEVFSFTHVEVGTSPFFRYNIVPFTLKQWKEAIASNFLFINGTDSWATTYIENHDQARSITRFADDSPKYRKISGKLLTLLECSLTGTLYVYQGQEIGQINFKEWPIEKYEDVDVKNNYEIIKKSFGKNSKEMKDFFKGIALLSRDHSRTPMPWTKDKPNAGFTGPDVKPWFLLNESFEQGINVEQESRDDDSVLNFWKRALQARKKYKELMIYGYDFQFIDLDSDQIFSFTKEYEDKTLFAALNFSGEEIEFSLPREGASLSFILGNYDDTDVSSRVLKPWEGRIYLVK

With `C[C@H](CC(O)C(O)C(C)(C)O)[C@H]1CC[C@@]2(C)[C@@H]3CC=C4[C@@H](CC[C@H](O[C@@H]5O[C@H](CO[C@@H]6O[C@H](CO)[C@@H](O)[C@H](O)[C@H]6O)[C@@H](O)[C@H](O)[C@H]5O)C4(C)C)[C@]3(C)CC[C@]12C` (stereo partly specified), the inhibition in assay [1] came out at 13%.
Compound `COc1cc(O)c2c(-c3ccc(O)c(O)c3)cc(=O)oc2c1` registered an IC50 in assay [2] of 62 µM. Also, in assay [3], the inhibition entry is “Dose-dependent effect”.
With `CCCC=C1OC(=O)c2ccccc21` [(E)-BUTYLIDENEPHTHALIDE], the inhibition constant (Ki) in assay [4] came to 4.86 µM. Also, in assay [2], the half-inhibitory concentration (IC50) is 2350 µM. The inhibition result in assay [3] is “Dose-dependent effect”.
On to `O=C(/C=C/c1ccc(O)c(O)c1)O[C@@H]1C[C@](O)(C(=O)O)C[C@@H](O)[C@H]1O` [CHLOROGENIC ACID], for which, in assay [5], the Activity came to 74.04% and the 50% effective dose (ED50) was 26 mg/kg.
Consider `CO[C@H]1C=C2[C@@H](CC[C@H](O[C@@H]3O[C@H](CO)[C@@H](O)[C@@H](O)[C@H]3O)C2(C)C)[C@]2(C)CC[C@]3(C)[C@@H]([C@H](C)C/C=C/C(C)(C)O)CC[C@@]3(C)[C@H]12`, for which, in assay [1], the inhibition turned out to be 15.8%.
In the case of `CC1(C)C=Cc2c(ccc(C(=O)CO)c2O)O1`, in assay [2], 420 µM corresponded to half-maximal inhibition (IC50).
`COc1cc(/C=C/C(=O)OC[C@H]2O[C@@H](O[C@H]3[C@H](Oc4cc5c(O[C@@H]6O[C@H](CO)[C@@H](O)[C@H](O)[C@H]6O)cc(O)cc5[o+]c4-c4ccc(O)c(O)c4)O[C@H](COC(=O)/C=C/c4ccc(O)c(O)c4)[C@@H](O)[C@@H]3O)[C@H](O)[C@@H](O)[C@@H]2O)ccc1O` returned an IC50 in assay [6] of 193 µM.
The compound `COC(C)(C)/C=C/C[C@@H](C)[C@H]1CC[C@@]2(C)[C@@H]3C=C[C@@]45OC[C@]3(CC[C@]12C)[C@@H]4CC[C@H](O[C@@H]1O[C@H](CO)[C@@H](O)[C@H](O)[C@H]1O)C5(C)C` had an inhibition in assay [1] of 11.5%.
Same read-out and setting: the result for `COC(C)(C)/C=C/C[C@@H](C)[C@H]1CC[C@@]2(C)[C@@H]3CC[C@@]45OC(=O)[C@]3(CC[C@]12C)[C@@H]4CC[C@H](O[C@@H]1O[C@H](CO)[C@@H](O)[C@@H](O)[C@H]1O)C5(C)C` reads 13.6%.
In assay [2], `COc1cc(-c2oc3cc(O)cc(O)c3c(=O)c2O)ccc1O` [ISORHAMNETIN] gave a 50% inhibitory concentration (IC50) of 160 µM.
For the compound `O=c1cc(-c2ccc(O)c(O)c2)c2c(O)cc(O)cc2o1`, the IC50 in assay [2] was found to be 208 µM. Besides, the inhibition result in assay [3] is “Dose-dependent effect”.
In turn, `C[C@H]([C@H](O)[C@@H](O)[C@@H](O)C(C)(C)O)[C@H]1CC[C@@]2(C)[C@@H]3CC=C4[C@@H](CC[C@H](O[C@@H]5O[C@H](CO[C@@H]6O[C@H](CO)[C@@H](O)[C@H](O)[C@H]6O)[C@@H](O)[C@H](O)[C@H]5O)C4(C)C)[C@]3(C)CC[C@]12C` gave an inhibition in assay [1] of 21.7%.
In assay [2], `C=C1C(=O)O[C@@H]2C[C@@H](C)/C=C\C(=O)[C@](C)(O)[C@H](OC(C)=O)[C@@H](OC(=O)/C(C)=C/C)[C@@H]12` [CALEIN C] had a 50% inhibitory concentration (IC50) of 280 µM.
The compound `C[C@H](C/C=C/C(C)(C)O)[C@H]1CC[C@@]2(C)[C@@H]3C=C[C@@]45OC[C@]3(CC[C@]12C)[C@@H]4CC[C@H](O[C@@H]1O[C@H](CO)[C@@H](O)[C@@H](O)[C@H]1O)C5(C)C` displayed an inhibition in assay [1] of 12.5%.
On the same count and under the same terms, for `CO[C@@H]1O[C@]23C=C[C@@H]4[C@@]1(CC[C@]1(C)[C@@H]([C@H](C)C/C=C/C(C)(C)O)CC[C@@]41C)[C@@H]2CC[C@H](O[C@@H]1O[C@H](CO)[C@@H](O)[C@H](O)[C@H]1O)C3(C)C` the value was 10.9%.
Same read-out and setting: for `C[C@H](C/C=C/C(C)(C)O)[C@H]1CC[C@@]2(C)[C@@H]3C=C[C@@]45OC[C@]3(CC[C@]12C)[C@@H]4CC[C@H](O[C@@H]1O[C@H](CO)[C@@H](O)[C@H](O)[C@H]1O)C5(C)C` the value was 10.1%.
The compound `CC(C)=CC(=O)O[C@H]1C[C@@H](O)[C@@]2(C)CO[C@H]3[C@@H](O)[C@@]4(C)C5=CC[C@@H](c6ccoc6)[C@]5(C)CC[C@@H]4[C@]1(C)[C@@H]32` [MELIACINOLIN] yielded a concentration for half-maximal inhibition (IC50) in assay [7] of 32.18 µg/mL (≈ 63 µM).
In assay [6], `COc1cc(/C=C/C(=O)OC[C@H]2O[C@@H](O[C@H]3[C@H](Oc4cc5c(O[C@@H]6O[C@H](CO)[C@@H](O)[C@H](O)[C@H]6O)cc(O)cc5[o+]c4-c4ccc(O)c(OC)c4)O[C@H](COC(=O)/C=C/c4ccc(O)c(O)c4)[C@@H](O)[C@@H]3O)[C@H](O)[C@@H](O)[C@@H]2O)ccc1O` yielded a 50% inhibitory concentration (IC50) of 200 µM.
Turning to `COc1cc(O[C@@H]2O[C@H](CO[C@@H]3OC[C@](O)(CO)[C@H]3O)[C@@H](O)[C@H](O)[C@H]2O)c2c(-c3ccc(O)c(O)c3)cc(=O)oc2c1`, in assay [5], the Activity came to 68.85% and the ED50 was 15 mg/kg.
With `CC(C)=C[C@H](O[C@@H]1O[C@H](CO)[C@@H](O)[C@@H](O)[C@H]1O)[C@@H](O)[C@@H](C)[C@H]1CC[C@@]2(C)[C@@H]3C=C[C@@]45OC[C@]3(CC[C@]12C)[C@@H]4CC[C@H](O[C@@H]1O[C@H](CO)[C@@H](O)[C@H](O)[C@H]1O)C5(C)C`, the inhibition in assay [1] was found to be 18.6%.
